Data set [1] is described as follows: Dissolution test in medium simulating gastric juice (0.1N HCl), 30 min. The data set is classed as physicochemical. As to conditions: Medium 0.1N HCl. The procedure:
(§1) Dissolution Test in 0.1 HCl and pH 6.8 Phosphate Buffer, 30 Min
(§2) The dissolution of TML-6 (API alone) and TML-6 formulations (E01 to E12) were measured in mediums simulating gastric juice for 30 mins, and the results are as shown in Table 5 and 6. The dissolution of TML-6 (API alone) and TML-6 formulations (E13 to E17) were measured in mediums simulating intestinal juice for 30 mins, and the results are as shown in Table 6.

Data set [2] can be described thus: Pharmacokinetics (PK) studies in rats, single oral dose. The data set is classed as in vivo. As to conditions: male, Sprague-Dawley, TML-6 in rat plasma, 25.0 mg/kg single dose, 0.5% MC suspension. As to the method:
The objective of this study is to obtain the pharmacokinetic profiles of TML-6 API (unformulated, crystalline), TML-6 formulation E02 (crystalline) and TML-6 formulations E10, E12 and E13 (amorphous) though oral (PO) doses when administrated to 6-8 week old male Sprague-Dawley rats (BioLASCO Taiwan Co. Ltd). A study design of five doses on rats. Animals received a single dose of TML-6 API, TML-6 formulations E02, E10, E12 and E13 at 25 mg/kg via oral gavage.
Dosing Solution Preparation: The TML-6 API, E02, E10, E12 and E13 oral formulations were prepared by suspending these TML6 formulated powder in the aqueous vehicle composed of 0.5% methylcellulose (MC) to the concentration of 2.5 mg/mL TML-6, respectively.
Plasma Sample Preparation and Bioanalysis Serial blood samples were collected from all animals through the tail veins. Approximately 0.2 mL blood samples were collected at each following time points: predose and 0.083, 0.25, 0.5, 1, 2, 4, 6, 8, 10 and 24 hours post-dose. Separation of plasma was prepared by centrifugation (1,000×g for 15 minutes at 4° C.) after blood sampling. Concentrations of TML-6 in rat plasma were determined by liquid chromatography-tandem mass spectrometry (LC-MS/MS), as shown in FIGS. 6 and 7. The lower limit of quantification (LLOQ) was 0.1 ng/mL. […]

Data set [3] is described as follows: Dissolution test in medium simulating intestinal juice (pH 6.8 phosphate buffer), 30 min. The data set is classed as physicochemical. As to conditions: Medium pH 6.8 Phosphate Buffer. As to the method:
as §1, §2

These results are taken from patent publication US20240366535A1, “FORMULATION WITH IMPROVED BIOAVAILABILITY” (MERRY LIFE BIOMEDICAL COMPANY, LTD., priority 2023, published 2024).

One may read the AUC(0-inf) as the area under the concentration-time curve extrapolated to infinity. Read a low AUC(0-inf) as low exposure. One may read the Cmax as the maximum level reached in the sampled fluid or tissue.

Molecules are shown by their SMILES.

Turning to `CCN(CC)C(=O)CC(C)(C(=O)/C=C/c1ccc(OC)c(OC)c1)C(=O)/C=C/c1ccc(OC)c(OC)c1` [API alone], the “Dissolution within 30 min” value in data set [1] was 0.1%. In addition, in data set [2], the AUC(0-inf) is 73.6 ng·h/mL and the highest level (Cmax) was 25.3 ng/mL. In addition, in data set [3], the “Dissolution within 30 mins” value is 0.06%.
